Results: ChEMBL document CHEMBL3112478, “Total synthesis of thiaplakortone a: derivatives as metabolically stable leads for the treatment of malaria” (ACS Med Chem Lett, 2014)

How the values were obtained:
[1] = tested on: NFF; assay: Cytotoxicity against human NFF after 72 hrs by SRB assay; format: cell-based
[2] = Selectivity index, ratio of IC50 for human NFF to IC50 for chloroquine-sensitive Plasmodium falciparum 3D7
[3] = tested on: Plasmodium falciparum; assay: Antimalarial activity against chloroquine-sensitive Plasmodium falciparum 3D7 assessed as [3H]-hypoxanthine incorporation after 48 hrs by liquid scintillation counting analysis; format: functional, organism-based
[4] = Solubility of the compound in phosphate buffered saline under acidic condition; format: physicochemical; conditions: buffer
[5] = Selectivity ratio of IC50 for chloroquine-sensitive Plasmodium falciparum 3D7 to IC50 for chloroquine and mefloquine-resistant Plasmodium falciparum Dd2; format: functional
[6] = Half life in mouse liver microsomes at 1 uM after 60 mins by LC-MS/MS analysis; format: ADME, Microsome
[7] = Selectivity index, ratio of IC50 for human NFF to IC50 for chloroquine and mefloquine-resistant Plasmodium falciparum Dd2
[8] = Solubility of the compound in phosphate buffered saline under neutral condition; format: physicochemical; conditions: buffer
[9] = Half life in human liver microsomes at 1 uM after 60 mins by LC-MS/MS analysis; format: ADME
[10] = Intrinsic clearance in mouse liver microsomes at 1 uM after 60 mins by LC-MS/MS analysis; format: ADME, Microsome; conditions: read-out: CLH
[11] = tested on: Plasmodium falciparum; assay: Antimalarial activity against chloroquine and mefloquine-resistant Plasmodium falciparum Dd2 assessed as [3H]-hypoxanthine incorporation after 48 hrs by liquid scintillation counting analysis; format: functional
[12] = Intrinsic clearance in human liver microsomes at 1 uM after 60 mins by LC-MS/MS analysis; format: ADME; conditions: read-out: CLH
[13] = tested on: Mus musculus; assay: Toxicity in Swiss mouse assessed as ruffled coat at 8 mg/kg administered for 4 days; format: organism-based; parameters: dose 8 mg/kg; conditions: in vivo, 96 h
[14] = tested on: Mus musculus; assay: Toxicity in Swiss mouse assessed as whole body tremor at 16 mg/kg measured up to 2 hrs post compound administration; format: organism-based; parameters: dose 16 mg/kg; conditions: in vivo
[15] = tested on: Mus musculus; assay: Toxicity in Swiss mouse assessed as whole body tremor at 8 mg/kg administered for 4 days measured after 1 to 2 hrs of each dose; format: organism-based; parameters: dose 8 mg/kg; conditions: in vivo
[16] = tested on: Plasmodium falciparum; assay: Antimalarial activity against chloroquine-sensitive Plasmodium falciparum 3D7 assessed as growth inhibition; format: functional, organism-based
[17] = tested on: Mus musculus; assay: Toxicity in Swiss mouse assessed as ruffled coat at 16 mg/kg measured up to 2 hrs post compound administration; format: organism-based; parameters: dose 16 mg/kg; conditions: in vivo
[18] = tested on: Plasmodium falciparum; assay: Antimalarial activity against chloroquine and mefloquine-resistant Plasmodium falciparum Dd2 assessed as growth inhibition; format: functional
[19] = tested on: Mus musculus; assay: Toxicity in Swiss mouse assessed as lethargy at 16 mg/kg measured up to 2 hrs post compound administration; format: organism-based; parameters: dose 16 mg/kg; conditions: in vivo
[20] = tested on: Mus musculus; assay: Toxicity in Swiss mouse assessed as whole body tremor at 4 to 8 mg/kg; format: organism-based; parameters: dose 4-8 mg/kg; conditions: in vivo
[21] = tested on: Mus musculus; assay: Toxicity in Swiss mouse assessed as swollen conjuctiva of eyes at 4 to 8 mg/kg; format: organism-based; parameters: dose 4-8 mg/kg; conditions: in vivo
[22] = tested on: Mus musculus; assay: Toxicity in Swiss mouse assessed as difficulty in movement at 4 to 8 mg/kg; format: organism-based; parameters: dose 4-8 mg/kg; conditions: in vivo
[23] = tested on: Mus musculus; assay: Toxicity in Swiss mouse assessed as orange urine at 4 to 8 mg/kg; format: organism-based; parameters: dose 4-8 mg/kg; conditions: in vivo
[24] = tested on: Mus musculus; assay: Toxicity in Swiss mouse assessed as panting at 4 to 8 mg/kg measured up to 15 mins post compound administration; format: organism-based; parameters: dose 4-8 mg/kg; conditions: in vivo, 0.25 h
[25] = tested on: Mus musculus; assay: Toxicity in Swiss mouse assessed as whole body tremor at 4 to 8 mg/kg measured up to 15 mins post compound administration; format: organism-based; parameters: dose 4-8 mg/kg; conditions: in vivo, 0.25 h

| SMILES | IC50 [1] | Ratio IC50 [2] | IC50 [3] | solubility [4] | Ratio IC50 [5] | half-life at 1 µM [6] | Ratio IC50 [7] | solubility [8] | half-life at 1 µM [9] | microsomal CLint at 1 µM [10] | IC50 [11] | microsomal CLint at 1 µM [12] | also measured |
| --- | --- | --- | --- | --- | --- | --- | --- | --- | --- | --- | --- | --- | --- |
| CCN(CC)CCCC(C)Nc1ccnc2cc(Cl)ccc12 (configuration not stated) [CHLOROQUINE] | 45900 nM | – | – | – | – | – | – | – | – | – | – | – | – |
| CNCCc1c[nH]c2c1C(=O)C1=C(NC=CS1(=O)=O)C2=O.Cl | 1480 nM | 9 | 160 nM | soluble | 3.4 | 2.52 h | 31 | soluble | 1.67 h | 11 µL/min/mg | 47 nM | 17 µL/min/mg | – |
| Cl.NCCc1c[nH]c2c1C(=O)C1=C(NC=CS1(=O)=O)C2=O | 1500 nM | 14 | 104 nM | soluble | 4.3 | 0.417 h | 60 | soluble | 0.617 h | 68 µL/min/mg | 24 nM | 46 µL/min/mg | Activity [13]: Toxic; Activity [14]: Toxic; Activity [15]: Toxic; IC50 [16]: 51 nM; Activity [17]: Toxic; IC50 [18]: 6.6 nM; Activity [19]: Toxic |
| CNCCc1cn(C)c2c1C(=O)C1=C(NC=CS1(=O)=O)C2=O.Cl | 2310 nM | 17 | 137 nM | soluble | 1.7 | > 4.17 h | 29 | soluble | > 4.17 h | < 7 µL/min/mg | 79 nM | < 7 µL/min/mg | Activity [20]: Toxic; Activity [21]: Toxic; Activity [22]: Toxic; Activity [23]: Toxic |
| Cn1cc(CCN)c2c1C(=O)C1=C(NC=CS1(=O)=O)C2=O | 13200 nM | 32 | 416 nM | – | – | – | 81 | – | – | – | 162 nM | – | – |
| Cl.Cn1cc(CCN)c2c1C(=O)C1=C(C2=O)S(=O)(=O)C=CN1 | 2310 nM | 18 | 128 nM | soluble | 1.7 | > 4.17 h | 40 | soluble | > 4.17 h | < 7 µL/min/mg | 57 nM | < 7 µL/min/mg | Activity [24]: Toxic; Activity [25]: Toxic |
